Results as given in ChEMBL document CHEMBL3392989 (Bioorg Med Chem Lett, 2015).
Active and inactive are the calls of the source. No cut-off for these calls is given here.

Key:
[1] = system: HT-22; assay: Cytotoxicity against mouse HT22 cells assessed as reduction in cell viability at 10 to 100 uM after 24 hrs by MTT assay; format: cell-based; settings: ht-22, 24 h
[2] = molecular target: Amyloid-beta precursor protein (Homo sapiens) (UniProt P05067); assay: Inhibition of Amyloid beta (1 to 42) (unknown origin) self aggregation at 5 uM pre-incubated for 24 hrs by Thioflavin T-based fluorometric assay
Sequence of Amyloid-beta precursor protein (Homo sapiens) (P05067 whole entry): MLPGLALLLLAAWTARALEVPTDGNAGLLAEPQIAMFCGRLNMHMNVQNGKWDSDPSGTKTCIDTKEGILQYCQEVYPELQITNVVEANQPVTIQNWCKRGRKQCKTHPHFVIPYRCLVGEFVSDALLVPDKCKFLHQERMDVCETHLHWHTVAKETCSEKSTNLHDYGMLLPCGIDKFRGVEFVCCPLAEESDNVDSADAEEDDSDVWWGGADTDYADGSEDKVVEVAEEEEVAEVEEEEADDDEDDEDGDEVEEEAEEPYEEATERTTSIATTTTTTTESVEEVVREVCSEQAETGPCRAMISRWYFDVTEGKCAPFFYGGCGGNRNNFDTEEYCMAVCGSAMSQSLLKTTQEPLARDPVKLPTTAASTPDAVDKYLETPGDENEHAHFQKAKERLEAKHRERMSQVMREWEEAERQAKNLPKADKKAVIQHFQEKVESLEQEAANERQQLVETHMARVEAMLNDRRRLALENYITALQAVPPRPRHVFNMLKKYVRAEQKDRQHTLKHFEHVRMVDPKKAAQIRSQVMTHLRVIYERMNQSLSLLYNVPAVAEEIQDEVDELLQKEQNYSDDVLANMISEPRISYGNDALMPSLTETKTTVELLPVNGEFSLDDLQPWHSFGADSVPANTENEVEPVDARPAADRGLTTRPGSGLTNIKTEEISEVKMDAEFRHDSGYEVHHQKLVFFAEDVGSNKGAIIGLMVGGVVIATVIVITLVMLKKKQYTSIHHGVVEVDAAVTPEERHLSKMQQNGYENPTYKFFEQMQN

[3] = molecular target: Acetylcholinesterase (Electrophorus electricus, UniProt O42275)
Sequence of Acetylcholinesterase (O42275 whole entry): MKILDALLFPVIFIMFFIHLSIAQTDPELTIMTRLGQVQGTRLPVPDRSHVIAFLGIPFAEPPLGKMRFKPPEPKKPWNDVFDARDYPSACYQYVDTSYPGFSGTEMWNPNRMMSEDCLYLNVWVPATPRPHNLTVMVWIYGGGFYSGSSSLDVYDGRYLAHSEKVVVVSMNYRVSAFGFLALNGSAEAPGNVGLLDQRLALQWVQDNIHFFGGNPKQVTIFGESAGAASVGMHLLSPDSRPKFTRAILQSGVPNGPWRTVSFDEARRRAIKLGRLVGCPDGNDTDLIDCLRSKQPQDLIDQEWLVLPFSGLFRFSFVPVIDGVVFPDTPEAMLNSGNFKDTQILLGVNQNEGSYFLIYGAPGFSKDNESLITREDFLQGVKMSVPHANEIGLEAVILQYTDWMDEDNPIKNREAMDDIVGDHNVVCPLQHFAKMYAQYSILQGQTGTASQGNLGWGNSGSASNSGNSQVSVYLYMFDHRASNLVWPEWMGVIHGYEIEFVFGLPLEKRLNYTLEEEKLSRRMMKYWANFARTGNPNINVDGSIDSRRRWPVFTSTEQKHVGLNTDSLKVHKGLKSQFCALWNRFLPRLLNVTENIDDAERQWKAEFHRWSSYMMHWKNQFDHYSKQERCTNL
Description: Inhibition of electric eel AChE pre-incubated for 20 mins before acetylcholine iodide substrate addition by Ellman's assay

[4] = molecular target: Amyloid-beta precursor protein (Homo sapiens) (UniProt P05067); assay: Inhibition of Amyloid beta (1 to 42) (unknown origin) self aggregation at 50 uM pre-incubated for 24 hrs by Thioflavin T-based fluorometric assay
[5] = system: HT-22; assay: Cytoprotective activity in mouse HT22 cells assessed as reduction in glutamate-induced cytotoxicity at 0.3 to 10 uM pre-incubated for 30 mins before incubation with glutamate for 24 hrs by MTT assay; format: functional, cell-based
[6] = molecular target: Beta-secretase 1 (Homo sapiens) (UniProt P56817); assay: Inhibition of BACE1 (unknown origin) at 10 uM using ([Asn670, Lue671]-Amyloid beta/A4 precursor protein 770 fragment 667-676-(2,4dinitrophenyl) Lys-Arg-Arg amide trifluoroacetate salt substrate incubated for 2 hrs by FRET assay
Sequence of Beta-secretase 1 (Homo sapiens) (P56817 whole entry, the tested form may be a part): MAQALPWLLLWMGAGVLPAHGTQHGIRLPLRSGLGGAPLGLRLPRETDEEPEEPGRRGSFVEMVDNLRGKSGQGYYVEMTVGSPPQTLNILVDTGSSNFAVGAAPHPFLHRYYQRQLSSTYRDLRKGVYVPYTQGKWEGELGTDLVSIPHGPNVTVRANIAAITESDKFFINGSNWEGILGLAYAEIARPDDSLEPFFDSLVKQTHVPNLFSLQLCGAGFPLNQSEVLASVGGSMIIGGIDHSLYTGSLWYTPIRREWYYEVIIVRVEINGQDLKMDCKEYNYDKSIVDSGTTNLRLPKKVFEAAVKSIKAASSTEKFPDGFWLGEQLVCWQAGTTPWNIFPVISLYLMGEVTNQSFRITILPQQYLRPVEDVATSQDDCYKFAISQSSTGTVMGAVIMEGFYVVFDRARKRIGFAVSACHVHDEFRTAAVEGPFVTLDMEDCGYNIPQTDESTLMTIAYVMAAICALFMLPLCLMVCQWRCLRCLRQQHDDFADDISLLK

[7] = molecular target: Cholinesterase (Equus caballus, UniProt P81908); assay: Inhibition of horse serum BuChE pre-incubated for 20 mins before […] substrate addition by Ellman's assay
Sequence of Cholinesterase (P81908 whole entry): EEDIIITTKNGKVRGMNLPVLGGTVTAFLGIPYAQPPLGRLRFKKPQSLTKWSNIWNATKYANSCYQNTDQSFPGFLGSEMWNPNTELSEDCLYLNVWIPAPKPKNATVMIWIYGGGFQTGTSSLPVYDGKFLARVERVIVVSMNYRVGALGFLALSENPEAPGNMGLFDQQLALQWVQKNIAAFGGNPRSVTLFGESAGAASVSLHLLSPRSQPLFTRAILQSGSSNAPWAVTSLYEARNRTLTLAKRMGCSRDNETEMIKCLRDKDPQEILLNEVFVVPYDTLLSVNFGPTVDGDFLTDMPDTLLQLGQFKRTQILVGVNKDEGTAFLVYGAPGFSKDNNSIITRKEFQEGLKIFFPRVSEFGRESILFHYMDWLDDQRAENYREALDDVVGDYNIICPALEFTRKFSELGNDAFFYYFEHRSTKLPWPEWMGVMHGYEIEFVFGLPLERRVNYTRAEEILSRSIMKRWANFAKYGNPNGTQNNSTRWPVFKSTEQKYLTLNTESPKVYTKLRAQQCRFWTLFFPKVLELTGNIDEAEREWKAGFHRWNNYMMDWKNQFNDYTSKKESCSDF

[8] = system: HT-22; assay: Cytotoxicity against mouse HT22 cells assessed as reduction in cell viability at 100 uM after 24 hrs by MTT assay; format: cell-based; settings: ht-22, 24 h
[9] = Metal chelating activity assessed as copper chelation activity by measuring barhochromic shift at 40 uM using CuCl2 UV-vis spectroscopy; format: physicochemical
[10] = system: HT-22; assay: Cytoprotective activity in mouse HT22 cells assessed as reduction in glutamate-induced cytotoxicity at 10 uM pre-incubated for 30 mins before incubation with glutamate for 24 hrs by MTT assay; format: functional, cell-based
[11] = system: HT-22; assay: Cytotoxicity against mouse HT22 cells assessed as reduction in cell viability at 10 uM after 24 hrs by MTT assay; format: cell-based; settings: ht-22, 24 h
[12] = system: HT-22; assay: Cytoprotective activity in mouse HT22 cells assessed as reduction in glutamate-induced cytotoxicity at 3 uM pre-incubated for 30 mins before incubation with glutamate for 24 hrs by MTT assay; format: functional, cell-based
[13] = system: HT-22; assay: Cytotoxicity against mouse HT22 cells assessed as reduction in cell viability at 30 to 100 uM after 24 hrs by MTT assay; format: cell-based; settings: ht-22, 24 h

Compound | Activity [1] | inhibition [2] [%] | IC50 [3] [nM] | inhibition [4] [%] | Activity [5] | inhibition [6] [%] | IC50 [7] [nM] | Activity [8] | Activity [9] | Activity [10] | Activity [11] | Activity [12] | Activity [13]
COc1cc(/C=C/C(=O)NCC(O)CNc2c3c(nc4ccccc24)CCCC3)ccc1O (stereo not given) | Non-toxic | 8.4 | 30 | 46.3 | inactive | 15 | 310 | – | – | – | – | – | –
O=C(/C=C/c1ccc(O)c(O)c1)NCC(O)CNc1c2c(nc3ccccc13)CCCC2 (stereo not given) | Non-toxic | 12.8 | 700 | 49.8 | inactive | 10.5 | 1010 | – | – | – | – | – | –
O=C(/C=C/c1ccc(O)c(O)c1)NCC(O)CNc1c2c(nc3cc(Cl)ccc13)CCCC2 (stereo not given) | – | 9.2 | 150 | 53.2 | – | 13.1 | 360 | Toxic | Active | Active | – | – | –
O=C(CCCCC1CCSS1)NCC(O)CNc1c2c(nc3cc(Cl)ccc13)CCCC2 (stereo not given) | – | – | 40 | – | – | 46.8 | 1030 | – | – | – | Toxic | Active | Toxic
O=C(CCCCC1CCSS1)NCC(O)CNc1c2c(nc3ccccc13)CCCC2 (stereo not given) | – | – | 100 | – | – | 24.8 | 1180 | – | – | – | – | Active | Toxic
COc1cc(/C=C/C(=O)NCC(O)CNc2c3c(nc4cc(Cl)ccc24)CCCC3)ccc1O (stereo not given) | – | 13.5 | 20 | 48.9 | inactive | 2.57 | 710 | Toxic | – | – | – | – | –
